From publication PMC9180621, “Preparation of Novel Pyrazolo[4,3-e]tetrazolo[1,5-b][1,2,4]triazine Sulfonamides and Their Experimental and Computational Biological Studies” (International Journal of Molecular Sciences, 2022)
Several values for one entry are separate records, joined by “and”; a condition that tells them apart may be missing. Identical values can stand only once. One block for each molecule: values may come before it.

Key:
Format in all cases: cell-based, human
PC-3 cells [1] = assay: MTT assay, cell viability; settings: for IC50: Homo sapiens, PC-3, 72 h incubation, MTT, ± SD
Description: A statistical program (Graphpad Prism 7) was used to analyze obtained data (MTT test). The dose–response analysis was performed to estimate the inhibitory concentration (IC50) of the tested compounds. The IC50 value is defined as a concentration of the tested compound that leads to a reduction in cell pool viability by 50% compared to the negative control (accepted as 100%). % cell viability=Absorbance value of treated cells−Absorbance value of blank/Absorbance value of untreated cells−Absorbance value of blank×100%
To estimate cell viability following 72 h incubation with the tested MM-compounds (MM134, MM136, MM137, and MM139), the MTT test was used according to the PN-EN ISO 10993-5. It is a quantitative method based on the tetrazolium yellow dye MTT [3(4,5-dimethyl-2-thiazolyl)-2,5-diphenyl-2H-tetrazolium bromide], which is converted by living cells to a purple product, formazan, the concentration of which was measured colorimetrically. The MTT assay was performed according to the procedure described by Mosmann with modifications. At a density of approximately 8 × 10^3 cells per 100 µL/well, 96-well plates were seeded. Following the given incubation period in controlled conditions (37 °C; 5% CO2), cells were exposed to different concentrations of tested compounds in DMSO (range 0.05–3 µM) in a volume of 100 µL medium per well. Final solvent concentration of DMSO was < 0.5% v/v. The experimental design included vehicle controls and blanks (wells without cells).
After 72 h of incubation of cells with tested MM-compounds, 20 µL of MTT tetrazolium salt (5 mg/mL in PBS) was added to each well, and plates were incubated once again in a humidified atmosphere for 3 h (37 °C; 5% CO2). Following the incubation time, the solutions were removed and 100 µL of DMSO was added to dissolve the formazan complexes. Subsequently, a spectrophotometer (microplate reader Power Wave XS BioTek Instruments, Inc., Winooski, VT, USA) reading was performed at 570 nm. The experiments were performed in duplicates.

BxPC-3 cells [2] = assay: Annexin V-FITC/propidium iodide flow cytometry, apoptosis; settings: IC50 concentration, Annexin V-FITC, ± SD
Description: (§1) Data are presented as mean percentage of apoptotic cells (early and late apoptotic) ± SD values. The differences between the experimental samples and vehicle control were evaluated by the ANOVA test followed by Tukey’s test (p < 0.05). Experiments were performed in triplicate. For flow cytometry analysis with Annexin V-FITC staining, the approximate number of analyzed cells was (N = 1 × 10^4), contrasting with the dual acridine orange/ethidium bromide (AO/EB) fluorescent staining (N = 200).
(§2) The Annexin V-FITC Apoptosis Detection Kit was used to estimate the apoptosis induction following 24 and 48 h incubation with the tested MM-compounds. During apoptosis, phosphatidylserine is transformed from the inner cell membrane to the cell surface, which can be detected by the annexin-FITC complex. The addition of propidium iodide to the reaction mixture allows the assessment of cell membrane integrity. Using flow cytometry analysis, four subpopulations of cells can be distinguished: alive (non-stained), necrotic (propidium iodide stained), early apoptotic (annexin V stained cells), or late-apoptotic cells (propidium iodide and annexin V stained). BxPC-3 and PC-3 cells were seeded at appropriate density on a 6-well plate (Table 9).
(§3) The experimental design included vehicle control (final solvent concentration was < 0.5% v/v DMSO), and cells treated with 2 µM SN-38 (active metabolite of irinotecan) used as a positive compensation control. Cells were left for incubation for another 24 or 48 h (37 °C; 5% CO2). After exposure, cells were trypsinized and transferred to cytometric tubes, left for 40 min, and centrifuged at 1400 rpm for 10 min at 4 °C. Afterward, the supernatant was removed, and the precipitate was diluted in 1 mL of PBS. The rest of the procedure was performed according to the manufacturer’s instructions. The results were obtained from three independent experiments.

PC-3 cells [3] = assay: as above; settings: PC-3, 48 h incubation, Annexin V-FITC, ± SD, control 8.37 ± 1.06%
Description: as §1, §2, §3

BxPC-3 cells [4] = assay: MitoTracker Red, mitochondria membrane potential
Description: (§4) The fitness of the mitochondria and changes in MMP were assessed using MitoTracker Red. Data for experimental groups were presented as mean percentage of control group fluorescence intensity ± SD value (Figure 11, Table 2). Mitotracker Red is deposited in the mitochondrial matrix in response to changes in the inner transmembrane potential of the mitochondria. The intensity of fluorescence reflects the fitness of the mitochondria and alters with changes in MMP [91]. BxPC-3 and PC-3 cells were seeded at appropriate density on a 96-well plates (Table 9). […] After appropriate incubation time, cells were incubated with MitoTracker Red (0.1 µM/200 µL PBS/well) for 40 min. Afterward, MitoTracker Red solution was removed from the wells and PBS (200 µL/well) was added. Fluorescence was read at an […] of 581/644 nm using the SpectraMax® i3x Multi-Mode Detection Platform.

PC-3 cells [5] = assay: MitoTracker Red, mitochondria membrane potential
Description: as §4

[6] = BxPC-3, 24 h incubation, control 10.3 ± 2.09%
[7] = BxPC-3, 48 h incubation, control 8.3 ± 1.13%
[8] = BxPC-3, 24 h incubation, 0.5IC50, ± SD
[9] = BxPC-3, 24 h incubation, 2xIC50, ± SD
[10] = BxPC-3, 24 h incubation, IC50, ± SD
[11] = BxPC-3, 48 h incubation, 0.5IC50, ± SD
[12] = BxPC-3, 48 h incubation, 2xIC50, ± SD
[13] = BxPC-3, 48 h incubation, IC50, ± SD
[14] = PC-3, 24 h incubation, 0.5IC50, ± SD
[15] = PC-3, 24 h incubation, 2xIC50, ± SD
[16] = PC-3, 24 h incubation, IC50, ± SD
[17] = PC-3, 48 h incubation, 0.5IC50, ± SD
[18] = PC-3, 48 h incubation, 2xIC50, ± SD
[19] = PC-3, 48 h incubation, IC50, ± SD

IC50 (PC-3 cells [1]): 160 ± 20 nM
SMILES: Cc1nn(-c2ccc(S(=O)(=O)NCCN3CCOCC3)cc2)c2nn3nnnc3nc12 [MM134]
times higher cytotoxic activity in PC-3 compared to normal human fibroblasts (WI-38) (PC-3 cells [1]; ratio of MTT IC50, PC-3 vs WI-38): 4 times | mean percentage of apoptotic cells (early and late apoptotic) (BxPC-3 cells [2]; [6]): 65.3 ± 9.1% | mean percentage of apoptotic cells (early and late apoptotic) (BxPC-3 cells [2]; [7]): 86.9 ± 1.16% | mean percentage of apoptotic cells (early and late apoptotic) (PC-3 cells [3]; 2xIC50 concentration): 20.37 ± 2.5% | mean percentage of control group fluorescence intensity (MMP) (BxPC-3 cells [4]; [8]): 88.19 ± 13.62% | mean percentage of control group fluorescence intensity (MMP) (BxPC-3 cells [4]; [9]): 78.31 ± 14.34% | mean percentage of control group fluorescence intensity (MMP) (BxPC-3 cells [4]; [10]): 81.23 ± 11.94% | mean percentage of control group fluorescence intensity (MMP) (BxPC-3 cells [4]; [11]): 79.98 ± 11.47% | mean percentage of control group fluorescence intensity (MMP) (BxPC-3 cells [4]; [12]): 68.95 ± 7.78% | mean percentage of control group fluorescence intensity (MMP) (BxPC-3 cells [4]; [13]): 66.04 ± 16.7% | mean percentage of control group fluorescence intensity (MMP) (PC-3 cells [5]; [14]): 100.35 ± 1.57% | mean percentage of control group fluorescence intensity (MMP) (PC-3 cells [5]; [15]): 82.34 ± 2.13% | mean percentage of control group fluorescence intensity (MMP) (PC-3 cells [5]; [16]): 82.5 ± 2.21% | mean percentage of control group fluorescence intensity (MMP) (PC-3 cells [5]; [17]): 82.1 ± 14.45% | mean percentage of control group fluorescence intensity (MMP) (PC-3 cells [5]; [18]): 64.56 ± 3.33% | mean percentage of control group fluorescence intensity (MMP) (PC-3 cells [5]; [19]): 80.26 ± 13.44%

IC50 (PC-3 cells [1]): 110 ± 7 nM
SMILES: Cc1nn(-c2ccc(S(=O)(=O)N3CCN(C)CC3)cc2)c2nn3nnnc3nc12 [MM137]
mean percentage of apoptotic cells (early and late apoptotic) (BxPC-3 cells [2]; [6]): 18.9 ± 2.95% | mean percentage of apoptotic cells (early and late apoptotic) (BxPC-3 cells [2]; [7]): 40.8 ± 1.36% | mean percentage of apoptotic cells (early and late apoptotic) (PC-3 cells [3]; 2xIC50 concentration): 38.93 ± 4% | mean percentage of apoptotic cells (early and late apoptotic) (PC-3 cells [3]; IC50 concentration): 22.57 ± 3.18% | mean percentage of control group fluorescence intensity (MMP) (BxPC-3 cells [4]; [8]): 89.34 ± 5.91% | mean percentage of control group fluorescence intensity (MMP) (BxPC-3 cells [4]; [9]): 79.22 ± 2.22% | mean percentage of control group fluorescence intensity (MMP) (BxPC-3 cells [4]; [10]): 79.5 ± 3.34% | mean percentage of control group fluorescence intensity (MMP) (BxPC-3 cells [4]; [11]): 84.62 ± 9.01% | mean percentage of control group fluorescence intensity (MMP) (BxPC-3 cells [4]; [12]): 73.8 ± 2.58% | mean percentage of control group fluorescence intensity (MMP) (BxPC-3 cells [4]; [13]): 79.8 ± 6.76% | mean percentage of control group fluorescence intensity (MMP) (PC-3 cells [5]; [14]): 96.26 ± 2.83% | mean percentage of control group fluorescence intensity (MMP) (PC-3 cells [5]; [15]): 82.5 ± 7.99% | mean percentage of control group fluorescence intensity (MMP) (PC-3 cells [5]; [16]): 87.9 ± 2.71% | mean percentage of control group fluorescence intensity (MMP) (PC-3 cells [5]; [17]): 78.26 ± 2.62% | mean percentage of control group fluorescence intensity (MMP) (PC-3 cells [5]; [18]): 64.19 ± 8.72% | mean percentage of control group fluorescence intensity (MMP) (PC-3 cells [5]; [19]): 75.49 ± 5.55%

IC50 (PC-3 cells [1]): 170 ± 3 nM
SMILES: Cc1nn(-c2ccc(S(=O)(=O)N3CCCCC3)cc2)c2nn3nnnc3nc12 [MM139]
mean percentage of apoptotic cells (early and late apoptotic) (BxPC-3 cells [2]; [6]): 59.6 ± 7.42% | mean percentage of apoptotic cells (early and late apoptotic) (BxPC-3 cells [2]; [7]): 85.4 ± 6.25% | mean percentage of apoptotic cells (early and late apoptotic) (PC-3 cells [3]; 2xIC50 concentration): 15 ± 2.42% | mean percentage of control group fluorescence intensity (MMP) (BxPC-3 cells [4]; [8]): 81.28 ± 14.44% | mean percentage of control group fluorescence intensity (MMP) (BxPC-3 cells [4]; [9]): 64.23 ± 6.08% | mean percentage of control group fluorescence intensity (MMP) (BxPC-3 cells [4]; [10]): 66.73 ± 3.72% | mean percentage of control group fluorescence intensity (MMP) (BxPC-3 cells [4]; [11]): 76.9 ± 6.40% | mean percentage of control group fluorescence intensity (MMP) (BxPC-3 cells [4]; [12]): 65.95 ± 12.53% | mean percentage of control group fluorescence intensity (MMP) (BxPC-3 cells [4]; [13]): 60.35 ± 0.91% | mean percentage of control group fluorescence intensity (MMP) (PC-3 cells [5]; [14]): 89.2 ± 6.28% | mean percentage of control group fluorescence intensity (MMP) (PC-3 cells [5]; [15]): 78.14 ± 6.56% and 78.14 ± 6.55% | mean percentage of control group fluorescence intensity (MMP) (PC-3 cells [5]; [16]): 87.28 ± 15.8% | mean percentage of control group fluorescence intensity (MMP) (PC-3 cells [5]; [17]): 78.91 ± 15.21% | mean percentage of control group fluorescence intensity (MMP) (PC-3 cells [5]; [18]): 61.28 ± 9.16% | mean percentage of control group fluorescence intensity (MMP) (PC-3 cells [5]; [19]): 65.93 ± 19.56%
